According to PubChem BioAssay AID2060498 (Molecular Pharmacology Branch, DTP, NCI, 2025):
pIC50: −log10 of the molar value.

Test system: 171881-019-R-J1-PDC tumor spheroids, viability
Experiment: Anticancer human tumor 171881-019-R-J1-PDC patient-derived invasive breast carcinoma cell line growth inhibition [GQUAD]
Details: spheroids with HUVEC and MSC; for pIC50: curve of first compound; for viability, T/C: stronger effect = lower value
Procedure, shortened: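 Multi-cell-type spheroids of tumor cells with HUVEC and mesenchymal stem cells, treated with drug combinations. Concentrations descend in half-log steps from near clinical Cmax, or from 10 microM where Cmax is unknown; viability read-out.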

[1] = second compound 0.0316 µM, first compound 0.000999 µM
[2] = second compound 0.0316 µM, first compound 0.00316 µM
[3] = second compound 0.0316 µM, first compound 0.00999 µM
[4] = second compound 0.0316 µM, first compound 0.0316 µM
[5] = second compound 0.0316 µM, first compound 0.0999 µM
[6] = second compound 0.0316 µM, first compound 0.316 µM
[7] = second compound 0.1 µM, first compound 0.000999 µM
[8] = second compound 0.1 µM, first compound 0.00316 µM
[9] = second compound 0.1 µM, first compound 0.00999 µM
[10] = second compound 0.1 µM, first compound 0.0316 µM
[11] = second compound 0.1 µM, first compound 0.0999 µM
[12] = second compound 0.1 µM, first compound 0.316 µM
[13] = second compound 0.316 µM, first compound 0.000999 µM
[14] = second compound 0.316 µM, first compound 0.00316 µM
[15] = second compound 0.316 µM, first compound 0.00999 µM
[16] = second compound 0.316 µM, first compound 0.0316 µM
[17] = second compound 0.316 µM, first compound 0.0999 µM
[18] = second compound 0.316 µM, first compound 0.316 µM
[19] = second compound 1 µM, first compound 0.000999 µM
[20] = second compound 1 µM, first compound 0.00316 µM
[21] = second compound 1 µM, first compound 0.00999 µM
[22] = second compound 1 µM, first compound 0.0316 µM
[23] = second compound 1 µM, first compound 0.0999 µM
[24] = second compound 1 µM, first compound 0.316 µM
[25] = second compound 3.16 µM, first compound 0.000999 µM
[26] = second compound 3.16 µM, first compound 0.00316 µM
[27] = second compound 3.16 µM, first compound 0.00999 µM
[28] = second compound 3.16 µM, first compound 0.0316 µM
[29] = second compound 3.16 µM, first compound 0.0999 µM
[30] = second compound 3.16 µM, first compound 0.316 µM
[31] = second compound 10 µM, first compound 0.000999 µM
[32] = second compound 10 µM, first compound 0.00316 µM
[33] = second compound 10 µM, first compound 0.00999 µM
[34] = second compound 10 µM, first compound 0.0316 µM
[35] = second compound 10 µM, first compound 0.0999 µM
[36] = second compound 10 µM, first compound 0.316 µM
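Also: spheroids exposed to compounds for 7 days.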
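For viability, T/C in this document: 100% = DMSO vehicle control viability.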

`CCc1c2c(nc3ccc(O)cc13)-c1cc3c(c(=O)n1C2)COC(=O)[C@]3(O)CC` + CN(C)c1ccc(Nc2c3ccc(NC(=O)CCN4CCCC4)cc3nc3cc(NC(=O)CCN4CCCC4)ccc23)cc1 was tested, and the pIC50 (second compound 0.0316 µM) was 8.10, the pIC50 (second compound 0.1 µM) was 8.11 and the pIC50 (second compound 0.316 µM) was 8.36. It also gave a pIC50 (second compound 1 µM) of over 9.00, a pIC50 (second compound 3.16 µM) of over 9.00 and a pIC50 (second compound 10 µM) of over 9.00. The viability, T/C [1] was 91.8%, the viability, T/C [2] was 56.5% and the viability, T/C [3] was 49.2%. It also gave a viability, T/C [4] of 42.3%, a viability, T/C [5] of 33.4% and a viability, T/C [6] of 24.8%. It also gave a viability, T/C [7] of 94.9%, a viability, T/C [8] of 55.6% and a viability, T/C [9] of 50.2%. The viability, T/C [10] was 43.8%, the viability, T/C [11] was 32.4% and the viability, T/C [12] was 27.4%. For the same compound, the viability, T/C [13] was 77.1%, the viability, T/C [14] was 51.1% and the viability, T/C [15] was 42.2%. The viability, T/C [16] was 30.9%, the viability, T/C [17] was 30.3% and the viability, T/C [18] was 22%. The viability, T/C [19] was 16.3%, the viability, T/C [20] was 12.6% and the viability, T/C [21] was 17%. The viability, T/C [22] was 11%, the viability, T/C [23] was 7.94% and the viability, T/C [24] was 6.83%. The viability, T/C [25] was 2.04%, the viability, T/C [26] was 1.12% and the viability, T/C [27] was 2.08%. It also gave a viability, T/C [28] of 1.29%, a viability, T/C [29] of 1.67% and a viability, T/C [30] of 1.67%. The viability, T/C [31] was 0.56%, the viability, T/C [32] was 0.37% and the viability, T/C [33] was 0.38%. It also gave a viability, T/C [34] of 0.48%, a viability, T/C [35] of 0.49% and a viability, T/C [36] of 0.16%.
Work on `CC1COCCN1c1cc(C2(O)CC3CCC(C2)O3)c2cnn(-c3ccn[nH]3)c2n1` (stereo unspecified) + CN(C)c1ccc(Nc2c3ccc(NC(=O)CCN4CCCC4)cc3nc3cc(NC(=O)CCN4CCCC4)ccc23)cc1 yielded a pIC50 (second compound 0.0316 µM) of over 7.50, a pIC50 (second compound 0.1 µM) of over 7.50 and a pIC50 (second compound 0.316 µM) of over 7.50. The pIC50 (second compound 1 µM) was over 7.50, the pIC50 (second compound 3.16 µM) was over 7.50 and the pIC50 (second compound 10 µM) was over 7.50. It also gave a viability, T/C [4] of 48%, a viability, T/C (second compound 0.0316 µM, first compound 0.1 µM) of 16.6% and a viability, T/C [6] of 5.6%. It also gave a viability, T/C (second compound 0.0316 µM, first compound 1 µM) of 1.83%, a viability, T/C (second compound 0.0316 µM, first compound 3.16 µM) of 1.12% and a viability, T/C (second compound 0.0316 µM, first compound 10 µM) of 0.76%. For the same compound, the viability, T/C [10] was 47.5%, the viability, T/C (second compound 0.1 µM, first compound 0.1 µM) was 15.7% and the viability, T/C [12] was 5.27%. The viability, T/C (second compound 0.1 µM, first compound 1 µM) was 1.88%, the viability, T/C (second compound 0.1 µM, first compound 3.16 µM) was 1.2% and the viability, T/C (second compound 0.1 µM, first compound 10 µM) was 1.32%. It also gave a viability, T/C [16] of 41.9%, a viability, T/C (second compound 0.316 µM, first compound 0.1 µM) of 13.6% and a viability, T/C [18] of 4.24%. The viability, T/C (second compound 0.316 µM, first compound 1 µM) was 1.41%, the viability, T/C (second compound 0.316 µM, first compound 3.16 µM) was 1.02% and the viability, T/C (second compound 0.316 µM, first compound 10 µM) was 0.73%. It also gave a viability, T/C [22] of 12.1%, a viability, T/C (second compound 1 µM, first compound 0.1 µM) of 4.72% and a viability, T/C [24] of 2.23%. It also gave a viability, T/C (second compound 1 µM, first compound 1 µM) of 0.4%, a viability, T/C (second compound 1 µM, first compound 3.16 µM) of 0.33% and a viability, T/C (second compound 1 µM, first compound 10 µM) of 0.3%. For the same compound, the viability, T/C [28] was 1.34%, the viability, T/C (second compound 3.16 µM, first compound 0.1 µM) was 0.9% and the viability, T/C [30] was 0.41%. It also gave a viability, T/C (second compound 3.16 µM, first compound 1 µM) of 0.14%, a viability, T/C (second compound 3.16 µM, first compound 3.16 µM) of 0.16% and a viability, T/C (second compound 3.16 µM, first compound 10 µM) of 0.2%. For the same compound, the viability, T/C [34] was 0.14%, the viability, T/C (second compound 10 µM, first compound 0.1 µM) was 0.25% and the viability, T/C [36] was 0.42%. The viability, T/C (second compound 10 µM, first compound 1 µM) was 0.25%, the viability, T/C (second compound 10 µM, first compound 3.16 µM) was 0.16% and the viability, T/C (second compound 10 µM, first compound 10 µM) was 0.14%.
`Cn1ncnc1[C@H]1c2n[nH]c(=O)c3cc(F)cc(c23)N[C@@H]1c1ccc(F)cc1` + CN(C)c1ccc(Nc2c3ccc(NC(=O)CCN4CCCC4)cc3nc3cc(NC(=O)CCN4CCCC4)ccc23)cc1 gave a pIC50 (second compound 0.0316 µM) of under 6.50, a pIC50 (second compound 0.1 µM) of under 6.50 and a pIC50 (second compound 0.316 µM) of under 6.50. The pIC50 (second compound 1 µM) was over 9.00, the pIC50 (second compound 3.16 µM) was over 9.00 and the pIC50 (second compound 10 µM) was over 9.00. For the same compound, the viability, T/C [1] was 95.8%, the viability, T/C [2] was 98% and the viability, T/C [3] was 91.5%. For the same compound, the viability, T/C [4] was 102%, the viability, T/C [5] was 88.9% and the viability, T/C [6] was 96.1%. It also gave a viability, T/C [7] of 105%, a viability, T/C [8] of 97.8% and a viability, T/C [9] of 98.8%. The viability, T/C [10] was 100%, the viability, T/C [11] was 72.9% and the viability, T/C [12] was 87.6%. For the same compound, the viability, T/C [13] was 87.7%, the viability, T/C [14] was 84.6% and the viability, T/C [15] was 89%. It also gave a viability, T/C [16] of 68.2%, a viability, T/C [17] of 79.3% and a viability, T/C [18] of 77%. The viability, T/C [19] was 35.8%, the viability, T/C [20] was 24.4% and the viability, T/C [21] was 34.5%. It also gave a viability, T/C [22] of 16.9%, a viability, T/C [23] of 22% and a viability, T/C [24] of 19.1%. It also gave a viability, T/C [25] of 2.45%, a viability, T/C [26] of 2.11% and a viability, T/C [27] of 1.92%. The viability, T/C [28] was 1.34%, the viability, T/C [29] was 1.64% and the viability, T/C [30] was 2.41%. The viability, T/C [31] was 0.29%, the viability, T/C [32] was 0.56% and the viability, T/C [33] was 0.56%. It also gave a viability, T/C [34] of 0.4%, a viability, T/C [35] of 0.71% and a viability, T/C [36] of 1.05%.
